Square brackets hold non-standard residues; d marks the D form. Peptide text beside a SMILES is read from it. Dolaproine = CO[C@@H]([C@@H]1CCCN1)[C@@H](C)C(=O)O; Dil = CC[C@H](C)[C@H](NC)[C@@H](CC(=O)O)OC; NMeV = CN[C@H](C(=O)O)C(C)C
What was measured:
Test in all cases: Anti-proliferation assay of ADC (SRB)
Format in all cases: cell-based, human
Conditions in all cases: 72 hours, drug
[1] = test system: SK-OV3 (HER2 positive) ovarian cancer cell line
Experimental: (§1) Anti-cell proliferation activities of antibodies, a drug, and ADC(s) illustrated in the following Table 2 on cancer cell lines were measured.
(§2) As the cancer cell lines, commercialized human breast cancer cell lines MCF-7 (HER2-negative or -normal) and SK-Br3 (HER2 positive), and a commercialized ovarian cancer cell lines SK-OV3 (HER2 positive) were used. As the drug, MMAF was used.
(§3) After each of the cancer cell lines was seeded in a 96-well plate at 10,000 cells/each well and cultured for 24 hours, the antibody and ADC were treated at a concentration of 0.01563-2 μg/ml (2 times serial dilution), and the drug was treated at a concentration of 4-500 nM (2 times serial dilution). After 72 hours, the numbers of living cells were quantified using a Sulforhodamine B (SRB) dye.

[2] = test system: MCF-7 (HER2-negative or -normal) breast cancer cell line
Experimental: as §1, §2, §3

[3] = test system: SK-Br3 (HER2 positive) breast cancer cell line
Experimental: as §1, §2
After 72 hours, the numbers of living cells were quantified using a Sulforhodamine B (SRB) dye.

`CC[C@H](C)[C@@H]([C@@H](CC(=O)N1CCC[C@H]1[C@H](OC)[C@@H](C)C(=O)N[C@@H](Cc1ccccc1)C(=O)O)OC)N(C)C(=O)[C@@H](NC(=O)[C@@H](NC)C(C)C)C(C)C` [MMAF, monomethylauristatin F] (H-[NMeV]V[Dil][Dolaproine]F-OH) gave an IC50 [1] of 227 nM, an IC50 [2] of 142 nM and an IC50 [3] of 136 nM.
